“And” between values parts separate entries of the source, which are not always exact repeats. Identical values can stand only once. Like-named read-outs stand apart in the source and are kept apart here.
What was measured:
[1] = tested on: Amaranthus rudis (AMATA), tall water hemp; test: Postemergence herbicide evaluation, growth of Amaranthus rudis (AMATA); format: in vivo; conditions: Amaranthus tuberculatus, post-emergence, percent reduction in plant size vs untreated control, read-out: Ave. AMATA; for pest or weed control at 280 g/ha: 280 g ae/ha; for pest or weed control at 560 g/ha: 560 g ae/ha
[2] = tested on: Ambrosia artemisiifolia (AMBEL), common ragweed; test: Postemergence herbicide evaluation, growth of Ambrosia artemisiifolia (AMBEL); format: in vivo; conditions: Ambrosia artemisiifolia, post-emergence, percent reduction in plant size vs untreated control, read-out: AVE. AMBEL; for pest or weed control at 280 g/ha: 280 g ae/ha; for pest or weed control at 560 g/ha: 560 g ae/ha
[3] = tested on: Abutilon theophrasti (ABUTH), velvetleaf; test: Postemergence herbicide evaluation, growth of Abutilon theophrasti (ABUTH); format: in vivo; conditions: Abutilon theophrasti, post-emergence, percent reduction in plant size vs untreated control, read-out: AVE. ABUTH; for pest or weed control at 280 g/ha: 280 g ae/ha; for pest or weed control at 560 g/ha: 560 g ae/ha
[4] = tested on: Chenopodium album (CHEAL), common lambsquarters; test: Postemergence herbicide evaluation, growth of Chenopodium album (CHEAL); format: in vivo; conditions: Chenopodium album, post-emergence, percent reduction in plant size vs untreated control, read-out: Ave. CHEAL; for pest or weed control at 280 g/ha: 280 g ae/ha; for pest or weed control at 560 g/ha: 560 g ae/ha
[5] = tested on: glyphosate resistant Conyza canadensis (L.) (ERICA), horseweed; test: Postemergence herbicide evaluation, growth of Conyza canadensis (ERICA); format: in vivo; conditions: Erigeron canadensis, post-emergence, percent reduction in plant size vs untreated control, read-out: Ave. ERICA; for pest or weed control at 280 g/ha: 280 g ae/ha; for pest or weed control at 560 g/ha: 560 g ae/ha
[6] = Volatility of compounds measured by thermogravimetric analysis (TGA); format: physicochemical
[7] = tested on: weeds ABUTH, AMATA, AMBEL, CHEAL, ERICA; test: Postemergence herbicide evaluation, overall average % weed control across ABUTH, AMATA, AMBEL, CHEAL and ERICA; format: in vivo; conditions: post-emergence, average over five weeds, read-out: Overall Ave % Weed Control; for pest or weed control at 280 g/ha: 280 g ae/ha; for pest or weed control at 560 g/ha: 560 g ae/ha
[8] = value marked *: decomposition of the material was observed

Structure (SMILES): O=C(COc1ccc(Cl)cc1Cl)ONC(=O)C1CCCC1 [Compound A20]
- pest or weed control at 280 g/ha ([1]; 168 h, 7 DAA): 91.5%
- pest or weed control at 560 g/ha ([1]; 168 h, 7 DAA): 92.5%
- pest or weed control at 280 g/ha ([1]; 336 h, 14 DAA): 90%
- pest or weed control at 560 g/ha ([1]; 336 h, 14 DAA): 90%
- pest or weed control at 280 g/ha ([1]; 504 h, 21 DAA): 100%
- pest or weed control at 560 g/ha ([1]; 504 h, 21 DAA): 82.5%
- pest or weed control at 280 g/ha ([2]; 168 h, 7 DAA): 72.5%
- pest or weed control at 560 g/ha ([2]; 168 h, 7 DAA): 85%
- pest or weed control at 280 g/ha ([2]; 336 h, 14 DAA): 100%
- pest or weed control at 560 g/ha ([2]; 336 h, 14 DAA): 85%
- pest or weed control at 280 g/ha ([2]; 504 h, 21 DAA): 100%
- pest or weed control at 560 g/ha ([2]; 504 h, 21 DAA): 100%
- pest or weed control at 280 g/ha ([3]; 168 h, 7 DAA): 60%
- pest or weed control at 560 g/ha ([3]; 168 h, 7 DAA): 87.5%
- pest or weed control at 280 g/ha ([3]; 336 h, 14 DAA): 79%
- pest or weed control at 560 g/ha ([3]; 336 h, 14 DAA): 100%
- pest or weed control at 280 g/ha ([3]; 504 h, 21 DAA): 92.5%
- pest or weed control at 560 g/ha ([3]; 504 h, 21 DAA): 100%
- pest or weed control at 280 g/ha ([4]; 168 h, 7 DAA): 77.5%
- pest or weed control at 560 g/ha ([4]; 168 h, 7 DAA): 77.5%
- pest or weed control at 280 g/ha ([4]; 336 h, 14 DAA): 98%
- pest or weed control at 560 g/ha ([4]; 336 h, 14 DAA): 92.5%
- pest or weed control at 280 g/ha ([4]; 504 h, 21 DAA): 95%
- pest or weed control at 560 g/ha ([4]; 504 h, 21 DAA): 96%
- pest or weed control at 280 g/ha ([5]; 168 h, 7 DAA): 75%
- pest or weed control at 560 g/ha ([5]; 168 h, 7 DAA): 80%
- pest or weed control at 280 g/ha ([5]; 336 h, 14 DAA): 98.5%
- pest or weed control at 560 g/ha ([5]; 336 h, 14 DAA): 94.5%
- pest or weed control at 280 g/ha ([5]; 504 h, 21 DAA): 100%
- pest or weed control at 560 g/ha ([5]; 504 h, 21 DAA): 100%
- TGA Data (rate of weight loss, volatility) [6]: 1.83 µg/min
- TGA Data (rate of weight loss, volatility) [6, 8]: 2.946* μg/min and 1.83* μg/min
- pest or weed control at 280 g/ha ([7]; 168 h, 7 DAA): 75.3%
- pest or weed control at 560 g/ha ([7]; 168 h, 7 DAA): 84.5%
- pest or weed control at 280 g/ha ([7]; 336 h, 14 DAA): 93.1%
- pest or weed control at 560 g/ha ([7]; 336 h, 14 DAA): 92.4%
- pest or weed control at 280 g/ha ([7]; 504 h, 21 DAA): 97.5%
- pest or weed control at 560 g/ha ([7]; 504 h, 21 DAA): 95.7%

Structure (SMILES): CCN(CC)OC(=O)COc1ccc(Cl)cc1Cl [Compound A21]
- pest or weed control at 280 g/ha ([1]; 168 h, 7 DAA): 80%
- pest or weed control at 560 g/ha ([1]; 168 h, 7 DAA): 85%
- pest or weed control at 280 g/ha ([1]; 336 h, 14 DAA): 90%
- pest or weed control at 560 g/ha ([1]; 336 h, 14 DAA): 87.5%
- pest or weed control at 280 g/ha ([1]; 504 h, 21 DAA): 80%
- pest or weed control at 560 g/ha ([1]; 504 h, 21 DAA): 100%
- pest or weed control at 280 g/ha ([2]; 168 h, 7 DAA): 70%
- pest or weed control at 560 g/ha ([2]; 168 h, 7 DAA): 70%
- pest or weed control at 280 g/ha ([2]; 336 h, 14 DAA): 80%
- pest or weed control at 560 g/ha ([2]; 336 h, 14 DAA): 98%
- pest or weed control at 280 g/ha ([2]; 504 h, 21 DAA): 100%
- pest or weed control at 560 g/ha ([2]; 504 h, 21 DAA): 100%
- pest or weed control at 280 g/ha ([3]; 168 h, 7 DAA): 60%
- pest or weed control at 560 g/ha ([3]; 168 h, 7 DAA): 87.5%
- pest or weed control at 280 g/ha ([3]; 336 h, 14 DAA): 67.5%
- pest or weed control at 560 g/ha ([3]; 336 h, 14 DAA): 94.5%
- pest or weed control at 280 g/ha ([3]; 504 h, 21 DAA): 90%
- pest or weed control at 560 g/ha ([3]; 504 h, 21 DAA): 99.5%
- pest or weed control at 280 g/ha ([4]; 168 h, 7 DAA): 77.5%
- pest or weed control at 560 g/ha ([4]; 168 h, 7 DAA): 82.5%
- pest or weed control at 280 g/ha ([4]; 336 h, 14 DAA): 92.5%
- pest or weed control at 560 g/ha ([4]; 336 h, 14 DAA): 96.5%
- pest or weed control at 280 g/ha ([4]; 504 h, 21 DAA): 97.5%
- pest or weed control at 560 g/ha ([4]; 504 h, 21 DAA): 99%
- pest or weed control at 280 g/ha ([5]; 168 h, 7 DAA): 85%
- pest or weed control at 560 g/ha ([5]; 168 h, 7 DAA): 82.5%
- pest or weed control at 280 g/ha ([5]; 336 h, 14 DAA): 92%
- pest or weed control at 560 g/ha ([5]; 336 h, 14 DAA): 94%
- pest or weed control at 280 g/ha ([5]; 504 h, 21 DAA): 97.5%
- pest or weed control at 560 g/ha ([5]; 504 h, 21 DAA): 100%
- TGA Data (rate of weight loss, volatility) [6, 8]: 1.352* μg/min
- pest or weed control at 280 g/ha ([7]; 168 h, 7 DAA): 74.5%
- pest or weed control at 560 g/ha ([7]; 168 h, 7 DAA): 81.5%
- pest or weed control at 280 g/ha ([7]; 336 h, 14 DAA): 84.4%
- pest or weed control at 560 g/ha ([7]; 336 h, 14 DAA): 94.1%
- pest or weed control at 280 g/ha ([7]; 504 h, 21 DAA): 93%
- pest or weed control at 560 g/ha ([7]; 504 h, 21 DAA): 99.7%

Structure (SMILES): C/C(=N\OC(=O)COc1ccc(Cl)cc1Cl)C(=O)c1ccccc1 [Compound A22]
- pest or weed control at 280 g/ha ([1]; 168 h, 7 DAA): 70%
- pest or weed control at 560 g/ha ([1]; 168 h, 7 DAA): 87.5%
- pest or weed control at 280 g/ha ([1]; 336 h, 14 DAA): 87.5%
- pest or weed control at 560 g/ha ([1]; 336 h, 14 DAA): 92.5%
- pest or weed control at 280 g/ha ([1]; 504 h, 21 DAA): 65%
- pest or weed control at 560 g/ha ([1]; 504 h, 21 DAA): 87.5%
- pest or weed control at 280 g/ha ([2]; 168 h, 7 DAA): 77.5%
- pest or weed control at 560 g/ha ([2]; 168 h, 7 DAA): 82.5%
- pest or weed control at 280 g/ha ([2]; 336 h, 14 DAA): 67.5%
- pest or weed control at 560 g/ha ([2]; 336 h, 14 DAA): 92.5%
- pest or weed control at 280 g/ha ([2]; 504 h, 21 DAA): 100%
- pest or weed control at 560 g/ha ([2]; 504 h, 21 DAA): 100%
- pest or weed control at 280 g/ha ([3]; 168 h, 7 DAA): 62.5%
- pest or weed control at 560 g/ha ([3]; 168 h, 7 DAA): 70%
- pest or weed control at 280 g/ha ([3]; 336 h, 14 DAA): 82.5%
- pest or weed control at 560 g/ha ([3]; 336 h, 14 DAA): 98.5%
- pest or weed control at 280 g/ha ([3]; 504 h, 21 DAA): 97%
- pest or weed control at 560 g/ha ([3]; 504 h, 21 DAA): 99.5%
- pest or weed control at 280 g/ha ([4]; 168 h, 7 DAA): 75%
- pest or weed control at 560 g/ha ([4]; 168 h, 7 DAA): 80%
- pest or weed control at 280 g/ha ([4]; 336 h, 14 DAA): 97.5%
- pest or weed control at 560 g/ha ([4]; 336 h, 14 DAA): 99%
- pest or weed control at 280 g/ha ([4]; 504 h, 21 DAA): 87.5%
- pest or weed control at 560 g/ha ([4]; 504 h, 21 DAA): 97.5%
- pest or weed control at 280 g/ha ([5]; 168 h, 7 DAA): 87.5%
- pest or weed control at 560 g/ha ([5]; 168 h, 7 DAA): 77.5%
- pest or weed control at 280 g/ha ([5]; 336 h, 14 DAA): 100%
- pest or weed control at 560 g/ha ([5]; 336 h, 14 DAA): 100%
- pest or weed control at 280 g/ha ([5]; 504 h, 21 DAA): 99%
- pest or weed control at 560 g/ha ([5]; 504 h, 21 DAA): 99.5%
- TGA Data (rate of weight loss, volatility) [6]: 0.42 µg/min
- pest or weed control at 280 g/ha ([7]; 168 h, 7 DAA): 74.5%
- pest or weed control at 560 g/ha ([7]; 168 h, 7 DAA): 79.5%
- pest or weed control at 280 g/ha ([7]; 336 h, 14 DAA): 87%
- pest or weed control at 560 g/ha ([7]; 336 h, 14 DAA): 96.5%
- pest or weed control at 280 g/ha ([7]; 504 h, 21 DAA): 89.7%
- pest or weed control at 560 g/ha ([7]; 504 h, 21 DAA): 96.8%
